The text below walks through data of patent US5624923A, “Tricyclic diazepine vasopressin antagonists and oxytocin antagonists” (priority 1995, dated 1997).

Test [1] has as its target T1, Rat Kidney Medullary V2 Receptors (Rattus norvegicus, UniProt Q00788).
T1 construct: Medullary tissues from rat kidneys are dissected out; from tissue; host or cells: rat kidney medulla membranes
Put plainly: Binding Assay to Rat Kidney Medullary V2 Receptors. Conditions: for IC50: rat kidney medulla membranes, read-out: V2 IC50; for inhibition at 10 µM: rat. The method in brief: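 IC50 derived from competition curves; bound tritium counted by liquid scintillation after filtration. Rat medullary kidney membranes (Tris-HCl pH 7.4, BSA, PMSF) were incubated 120 min to equilibrium with radioligand and test compound (added in 50% DMSO). Nonspecific binding: 1.0 μM unlabeled ligand.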

A further test concerns Vasopressin V2. Put plainly: Vasopressin V2 Antagonist Activity in Conscious Hydrated Rats. Format: in vivo, rat. The note with it: 10 mg/kg orally, AVP 0.4 μg/kg i.p. In outline: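 Four-hour urine output, osmolality and electrolytes (Na+, K+, Cl−) recorded in water-loaded rats (30 mL/kg deionized water orally) given AVP i.p. at 0.4 μg/kg. Test compounds were given orally at 0.1–100 mg/kg 1 h before AVP; 2–4 rats per compound.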

Test [2] has as its target T2, V1 Receptor Subtype in Human Platelet (Homo sapiens, UniProt P37288).
T2 construct: tissue Hudson Valley Blood Services, Westchester Medical Center, Valhalla, N.Y; host or cells: human platelets (frozen platelet rich plasma)
Put plainly: Binding to Vasopressin V1 receptor subtype in Human Platelet Membranes. The note with it: human platelet membranes.

T1 sequence (Q00788 whole entry): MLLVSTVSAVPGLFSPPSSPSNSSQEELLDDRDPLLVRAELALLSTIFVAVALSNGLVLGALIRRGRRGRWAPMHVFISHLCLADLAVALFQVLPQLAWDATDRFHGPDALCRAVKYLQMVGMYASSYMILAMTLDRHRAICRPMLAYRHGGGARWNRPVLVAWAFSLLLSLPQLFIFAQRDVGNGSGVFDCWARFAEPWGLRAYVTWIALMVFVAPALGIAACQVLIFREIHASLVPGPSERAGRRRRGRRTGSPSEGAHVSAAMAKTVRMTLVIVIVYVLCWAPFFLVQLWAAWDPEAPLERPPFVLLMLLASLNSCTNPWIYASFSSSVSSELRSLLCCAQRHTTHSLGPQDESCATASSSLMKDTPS
T2 sequence (P37288 whole entry): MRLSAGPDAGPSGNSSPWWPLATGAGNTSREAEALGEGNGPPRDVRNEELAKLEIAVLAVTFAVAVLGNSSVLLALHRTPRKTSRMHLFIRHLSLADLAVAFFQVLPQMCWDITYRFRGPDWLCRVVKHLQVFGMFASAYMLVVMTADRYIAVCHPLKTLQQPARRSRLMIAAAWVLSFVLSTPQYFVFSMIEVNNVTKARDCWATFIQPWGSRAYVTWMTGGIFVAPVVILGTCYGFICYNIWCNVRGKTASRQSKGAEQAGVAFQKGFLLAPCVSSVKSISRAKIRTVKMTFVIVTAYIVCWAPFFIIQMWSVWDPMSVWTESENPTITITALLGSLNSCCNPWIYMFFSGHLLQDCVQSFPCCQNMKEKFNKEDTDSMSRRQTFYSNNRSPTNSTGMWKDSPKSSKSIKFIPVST

Take `O=C(Nc1ccc(C(=O)N2Cc3ccnn3Cc3ccccc32)cc1)c1ccc(Cl)cc1Cl` [Example 217, N-[4-(4H-Pyrazolo[5,1-c][1,4]benzo-diazepin-5(10H)-ylcarbonyl)phenyl]-2,4-dichlorobenzamide]: the IC50 in test [1] came out at 5 nM. Moreover, in the test on Vasopressin V2, the Osmolality was found to be 466 mOsm/kg and the “Urine Volume” value worked out at 14.3 ml/4 hrs. Besides, in test [2], the IC50 is 190 nM.
Turning to `O=C(Nc1ccc(C(=O)N2Cc3cccn3Cc3sccc32)cc1)c1ccc(Cl)cc1Cl` [Example 274, N-(4-(5H-pyrrolo[1,2-a]thieno-[3,2-e][1,4]diazepin-4(10H)-ylcarbonyl)phenyl]-2,4-dichloro-benzamide], in the test on Vasopressin V2, the Osmolality was found to be 1177 mOsm/kg and the “Urine Volume” value came to 3 ml/4 hrs. This molecule had an IC50 in test [2] of 240 nM.
On the same counts, the results for `COc1cc(C(=O)N2Cc3cccn3Cc3ccccc32)ccc1NC(=O)c1ccccc1C` [Example 477, N-[4-(5H-pyrrolo[2,1-c][1,4]benzodiazepin-10(11H)-ylcarbonyl)-2-methoxy-phenyl]-2-methylbenzamide] are 701 mOsm/kg, 5.3 ml/4 hrs and 3 nM.
In the case of `COc1cc(C(=O)N2Cc3cccn3Cc3ccccc32)ccc1NC(=O)c1ccc(Cl)cc1Cl` [Example 478, N-[4-(5H-pyrrolo[2,1-c][1,4]benzodiazepin-10(11H)-ylcarbonyl)-2-methoxy-phenyl]-2,4-dichlorobenzamide], in the test with Vasopressin V2, the Osmolality was found to be 1399 mOsm/kg and the “Urine Volume” value was determined as 3 ml/4 hrs. In addition, the IC50 in test [2] was determined as 32 nM.
For the molecule `COc1cc(C(=O)N2Cc3cccn3Cc3ccccc32)ccc1NC(=O)c1cccc(F)c1C` [Example 479, N-[4-(5H-pyrrolo[2,1-c][1,4]benzodiazepin-10(11H)-ylcarbonyl)-2-methoxy-phenyl]-3-fluoro-2-methylbenzamide], the IC50 worked out at 8 nM in test [1] and 23 nM in test [2]. Moreover, the Osmolality in the test on Vasopressin V2 is 1042 mOsm/kg. Also, in the test with Vasopressin V2, the “Urine Volume” value stood at 6 ml/4 hrs.
For `O=C(Nc1ccc(C(=O)N2Cc3cccn3Cc3ccccc32)cc1)c1cc([N+](=O)[O-])ccc1Cl` [Example 480, N-[4-(5H-pyrrolo[2,1-c][1,4]benzodiazepin-10(11H)-ylcarbonyl)phenyl]-2-chloro-5-nitrobenzamide], in the test with Vasopressin V2, the Osmolality came out at 827 mOsm/kg and the “Urine Volume” value is given as 8.8 ml/4 hrs. Further, the IC50 in test [2] was 540 nM.
On to `Cc1cccc(C(=O)Nc2ccc(C(=O)N3Cc4cccn4Cc4ccccc43)c(Cl)c2)c1C` [Example 525, N-[4-(5H-pyrrolo[2,1-c][1,4]benzodiazepin-10(11H)-ylcarbonyl]-3-chlorophenyl]-2,3-dimethylbenzamide], for which, in the test with Vasopressin V2, the Osmolality came out at 557 mOsm/kg and the “Urine Volume” value was determined as 13 ml/4 hrs. In test [2], the IC50 turned out to be 430 nM.
`O=C(Nc1ccc(C(=O)N2Cc3cccn3Cc3ccccc32)c(Cl)c1)c1ccc(F)cc1Cl` [Example 527, N-[4-(5H-pyrrolo[2,1-c][1,4]benzodiazepin-10(11H)-ylcarbonyl]-3-chlorophenyl]-4-fluoro-2-chlorobenzamide]: in the test on Vasopressin V2, the Osmolality worked out at 430 mOsm/kg and the “Urine Volume” value is 19.5 ml/4 hrs. The molecule also returned an IC50 in test [2] of 26 nM.
On to `O=C(Nc1ccc(C(=O)N2Cc3cccn3Cc3ccccc32)c(Cl)c1)c1ccccc1C(F)(F)F` [Example 528, N-[4-(5H-pyrrolo[2,1-c][1,4]benzodiazepin-10(11H)-ylcarbonyl]-3-chlorophenyl]-2-(trifluoromethyl)benzamide], for which, in the test with Vasopressin V2, the Osmolality was found to be 647 mOsm/kg and the “Urine Volume” value was found to be 11.3 ml/4 hrs. This molecule also registered an IC50 in test [2] of 200 nM.
As for `Cc1ccccc1C(=O)Nc1ccc(C(=O)N2Cc3cccn3Cc3ccccc32)cc1Cl` [Example 530, N-[4-(5H-Pyrrolo[2,1-c][1,4]benzodiazepin-10(11H)-ylcarbonyl)-2-chlorophenyl]-2-methylbenzamide], the IC50 in test [1] was 3.7 nM; in test [2] it was 3 nM. For the same molecule, in the test with Vasopressin V2, the Osmolality stood at 914 mOsm/kg. Moreover, in the test on Vasopressin V2, the “Urine Volume” value is on record as 6 ml/4 hrs.
Take `CC(=O)OC(C(=O)Nc1ccc(C(=O)N2Cc3cccn3Cc3ccccc32)cc1)c1ccccc1` (stereo not drawn) [Example 587, α-(Acetyloxy)-N-[4-(5H-pyrrolo[2,1-c][1,4]benzodiazepin-10(11H)-ylcarbonyl)phenyl]benzeneacetamide]: the IC50 in test [1] turned out to be 22 nM. Further, in the test on Vasopressin V2, the Osmolality came out at 868 mOsm/kg and the “Urine Volume” value worked out at 9 ml/4 hrs.
For the molecule `O=C(CN1CCOCC1)Nc1ccc(C(=O)N2Cc3cccn3Cc3ccccc32)cc1` [Example 590, N-[4-(5H-pyrrolo[2,1-c][1,4]benzodiazepin-10(11H)-ylcarbonyl)phenyl]-4-morpholineacetamide], in test [1], at 10 µM the inhibition was 81%. Also, in the test on Vasopressin V2, the Osmolality is 1355 mOsm/kg and the “Urine Volume” value turned out to be 3 ml/4 hrs.
For the molecule `COC(=O)c1ccc2n1Cc1ccccc1N(C(=O)c1ccc(NC(=O)c3ccc(Cl)cc3Cl)cc1)C2` [Example 593], in test [1], the IC50 was 42 nM. Moreover, in the test on Vasopressin V2, the Osmolality was determined as 577 mOsm/kg and the “Urine Volume” value is given as 11.8 ml/4 hrs.
In test [1], `O=C(Nc1ccc(C(=O)N2Cc3ccc(C(=O)C(F)(F)F)n3Cc3ccccc32)cc1)c1ccccc1C(F)(F)F` [Example 594] registered an inhibition at 10 µM of 23%. Moreover, in the test on Vasopressin V2, the Osmolality is given as 1172 ± 182 mOsm/kg and the “Urine Volume” value stood at 4.9 ± 1.2 ml/4 hrs.
Molecule `Cc1ccccc1C(=O)Nc1ccc(C(=O)N2Cc3ccc(C(=O)C(F)(F)F)n3Cc3ccccc32)c(Cl)c1` [Example 595, N-[4-[[3-(Trifluoroacetyl)-5H-pyrrolo[2,1-c][1,4]benzodiazepin-10(11H)-yl]carbonyl]-3-chlorophenyl]-2-methylbenzamide] registered an inhibition at 10 µM in test [1] of 93%. Also, in the test on Vasopressin V2, the Osmolality is listed as 1474 mOsm/kg and the “Urine Volume” value came to 8.3 ml/4 hrs.
With `O=C(Nc1ccc(C(=O)N2Cc3cccn3Cc3ccccc32)cc1)c1cc(Cl)cc(Cl)c1Cl` [Example 599, N-[4-(5H-Pyrrolo[2,1-c][1,4]benzodiazepin-10(11H)-ylcarbonyl)phenyl]-2,3,5-trichlorobenzamide], in test [1], the IC50 was determined as 14 nM. Also, in the test on Vasopressin V2, the Osmolality came to 407 mOsm/kg and the “Urine Volume” value is given as 18 ml/4 hrs.
